Measured values taken from US8580268B2, “CpG oligonucleotide analogs containing hydrophobic T analogs with enhanced immunostimulatory activity” (Coley Pharmaceutical GmbH, priority 2006, dated 2013).
“Also recorded” adds a separate entry of the source. Strand notation (5' to 3'): a small letter for the sugar, then the base; units joined by * are phosphorothioate-linked, units joined directly phosphodiester-linked; [ ] holds rarer units or linkages, { } end groups; capitals alone tell only the bases. [5IU] = 5-iodo-2'-deoxyuridine (JU); [HEG] = Spacer 18, hexaethylene glycol phosphate; [TEG] = Spacer 9, triethylene glycol phosphate; [2doub] = Doubler2 branching unit (Chemgenes); [6NB] = 6-nitro-benzimidazol nucleoside; [5BrU] = 5-bromo-2'-deoxyuridine (BU); d = 2'-deoxy (DNA)

Target: T1, human TLR9 (Homo sapiens, UniProt Q9NR96)
T1 construct: expressed in transfected cells
T1 sequence (Q9NR96 26-1032): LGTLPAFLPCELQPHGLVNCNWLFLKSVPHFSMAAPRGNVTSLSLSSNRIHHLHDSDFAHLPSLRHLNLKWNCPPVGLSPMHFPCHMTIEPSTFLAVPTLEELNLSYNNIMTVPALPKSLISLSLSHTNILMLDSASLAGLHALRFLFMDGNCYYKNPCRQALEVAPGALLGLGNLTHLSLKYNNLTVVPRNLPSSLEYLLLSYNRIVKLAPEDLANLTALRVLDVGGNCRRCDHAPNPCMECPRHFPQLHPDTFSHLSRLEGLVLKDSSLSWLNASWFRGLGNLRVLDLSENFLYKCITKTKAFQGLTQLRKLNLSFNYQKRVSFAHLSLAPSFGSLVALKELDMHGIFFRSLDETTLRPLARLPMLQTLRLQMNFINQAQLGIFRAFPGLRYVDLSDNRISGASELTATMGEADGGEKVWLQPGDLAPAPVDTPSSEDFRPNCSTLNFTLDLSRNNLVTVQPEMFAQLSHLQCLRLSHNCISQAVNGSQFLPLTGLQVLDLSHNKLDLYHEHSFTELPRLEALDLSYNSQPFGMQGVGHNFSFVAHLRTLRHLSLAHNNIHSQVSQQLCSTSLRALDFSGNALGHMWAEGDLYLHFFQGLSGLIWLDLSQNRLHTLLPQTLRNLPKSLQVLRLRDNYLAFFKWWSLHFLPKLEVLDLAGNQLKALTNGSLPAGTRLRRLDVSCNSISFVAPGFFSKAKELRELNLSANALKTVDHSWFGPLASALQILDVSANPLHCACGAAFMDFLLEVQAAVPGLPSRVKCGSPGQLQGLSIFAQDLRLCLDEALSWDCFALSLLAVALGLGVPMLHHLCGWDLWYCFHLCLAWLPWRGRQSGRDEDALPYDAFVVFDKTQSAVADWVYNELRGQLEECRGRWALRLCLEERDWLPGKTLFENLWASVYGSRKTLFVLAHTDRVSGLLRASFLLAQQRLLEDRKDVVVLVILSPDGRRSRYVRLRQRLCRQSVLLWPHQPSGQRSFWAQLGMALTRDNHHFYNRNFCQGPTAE
Test: TLR9 luciferase assay (NF-κB reporter) in hTLR9-LUC-293 cells
Type: cell-based
Settings: 16 h, stated in words relative to the comparator ODN
Description: HEK293 cells were transfected by electroporation with vectors expressing the respective human TLR and a 6xNF-κB-luciferase reporter plasmid. Stable transfectants (3×10^4 cells/well) were incubated indicated amounts of ODN for 16 h at 37° C. in a humidified incubator. Each data point was done in triplicate. Cells were lysed and assayed for luciferase gene activity (using the BriteLite kit from Perkin-Elmer, Zaventem, Belgium). Stimulation indices were calculated in reference to reporter gene activity of medium without addition of ODN.

Substance | TLR9 stimulation (NF-κB luciferase activity, relative stimulation index)
(JU*C*G*T*T*C*G*L*)2doub-3mG (DNA NCGTTCGNNN; JU, 3'3'-branched doubler, chemistry not fully specified) [SEQ ID NO:97] | as active or more active than the unmodified SEQ ID NO:1
(JU*C*G*T*T*C*G*L*)2doub-teg (DNA d[5IU]*dC*dG*dT*dT*dC*dG*[HEG]*[2doub][TEG]; some compounds branched: two arms joined via doubler and TEG) [SEQ ID NO:102, 3′3′-branched] | as active or more active than the unmodified SEQ ID NO:1; also recorded: more active than SEQ ID NO:96 AND 97
(T*G*JU*C-G*T*T*L*)2doub-3mG (DNA TGNCGTTNNN; JU, 3'3'-branched doubler, chemistry not fully specified) [SEQ ID NO:96] | as active or more active than the unmodified SEQ ID NO:1
(T*G*JU*C-G*T*T*L*)2doub-teg (DNA TGNCGTTNNN; JU modification, 3'3'-branched doubler with TEG, chemistry not fully specified) [SEQ ID NO:101] | as active or more active than the unmodified SEQ ID NO:1; also recorded: more active than SEQ ID NO:96 AND 97
G*JU*C-G*JU*T-hex [SEQ ID NO:126] | greatly enhanced the activity
JU*C-G*JU*C*G*T*T*T*T*A*C*G*G*C*G*C*C*G*T*G*C*C*G (DNA d[5IU]*dCdG*d[5IU]*dC*dG*dT*dT*dT*dT*dA*dC*dG*dG*dC*dG*dC*dC*dG*dT*dG*dC*dC*dG) [SEQ ID NO:44] | increased stimulation of TLR9 above unmodified A and C class
T*C*G*JU*C-G*JU*T*T*T*A*C*G*G*C*G*C*C*G*T*G*C*C*G (DNA dT*dC*dG*d[5IU]*dCdG*d[5IU]*dT*dT*dT*dA*dC*dG*dG*dC*dG*dC*dC*dG*dT*dG*dC*dC*dG) [SEQ ID NO:45] | increased stimulation of TLR9 above unmodified A and C class
T*C*T*T*T*T*T*T*G*U*C-G*T*T*T*T*T*T*T*T*T*T (DNA dT*dC*dT*dT*dT*dT*dT*dT*dG*dU*dCdG*dT*dT*dT*dT*dT*dT*dT*dT*dT*dT) [SEQ ID NO:51, U-modified T class] | reduced stimulation of TLR9
T*C-G-A-C-G-JU-C-G-JU-G-G*G*G*G (DNA dT*dCdGdAdCdGd[5IU]dCdGd[5IU]dGdG*dG*dG*dG) [SEQ ID NO:36, JU-modified A class] | increased stimulation of TLR9 above unmodified A and C class
T*C-G-A-C-G-JU-C-G-T-G-G*G*G*G (DNA dT*dCdGdAdCdGd[5IU]dCdGdTdGdG*dG*dG*dG) [SEQ ID NO:35, JU-modified A class] | increased stimulation of TLR9 above unmodified A and C class
T*G*6NB*C-G*T*T*T*T*T*T*T*T*T*T*T*T*T*T*T (DNA TGNCGTTTTTTTTTTTTTTT; DNA at 1, 2, 4, 5, 6, 7, 8, 9, 10, 11, 12, 13, 14, 15, 16, 17, 18, 19, 20, [6NB] at 3, linkages s3 o1 s15 (s phosphorothioate, o phosphodiester), other sugars not given here; further chemistry not fully specified) [SEQ ID NO:178, B-class with 6-nitro-benzimidazol (6NB)] | comparable with the unmodified parent sequence
T*G*BU*C-G*T*T*T*T*T*T*T*T*T*T*T*T*T*T*T (DNA dT*dG*d[5BrU]*dCdG*dT*dT*dT*dT*dT*dT*dT*dT*dT*dT*dT*dT*dT*dT*dT) [SEQ ID NO:10] | greater stimulation of TLR9 activity over control
